Results taken from the supplement of paper PMC13207355.

Legend:
Conditions in all cases: exposure time: 72 h
E13 [1] = patient-derived glioblastoma stem cells of classical subtype; test: phenotypic distance (Euclidean, principal components) from DMSO controls (arbitrary units); higher = stronger morphological change
E34 [2] = patient-derived glioblastoma stem cells of proneural subtype; test: as above
E31 [3] = patient-derived glioblastoma stem cells of proneural subtype; test: as above
FT3469 [4] = normal neural stem cell line; test: as above
E28 [5] = patient-derived glioblastoma stem cells of classical subtype; test: as above
E57 [6] = patient-derived glioblastoma stem cells of mesenchymal subtype; test: as above
E21 [7] = patient-derived glioblastoma stem cells of mesenchymal subtype; test: as above
E13 [8] = test: surviving fraction (nuclei count normalised to DMSO); higher = more cells surviving (less toxic)
E34 [9] = test: as above
E31 [10] = test: as above
FT3469 [11] = test: as above
E28 [12] = test: as above
E57 [13] = test: as above
E21 [14] = test: as above
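For phenotypic distance (Euclidean, principal components) from DMSO controls in this document: cell Painting imaging in 384-well plates, CellProfiler features reduced to at least 20 principal components, Euclidean distance versus same-plate DMSO vehicle wells (0.1% v/v), median over six images per well.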
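For surviving fraction (nuclei count normalised to DMSO) in this document: nuclei counted by high-content imaging of Hoechst-stained cells in laminin-coated 384-well plates, relative to 0.1% DMSO vehicle wells, with staurosporine as cell-death control.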

COc1cc([C@@H]2c3cc4c(cc3[C@@H](O[C@@H]3O[C@@H]5CO[C@@H](C)O[C@H]5[C@H](O)[C@H]3O)[C@H]3COC(=O)[C@H]23)OCO4)cc(OC)c1O [Etoposide]
Conditions	phenotypic distance	surviving fraction
E13 [1], 4.11523 nM	1.04	–
E13 [1], 12.34567901 nM	0.799	–
E13 [1], 37.037 nM	0.736	–
E13 [1], 111.1111111 nM	0.704	–
E13 [1], 333.333 nM	2.88	–
E13 [1], 1000 nM	4.56	–
E13 [1], 3000 nM	5.77	–
E13 [8], 4.11523 nM	–	1.03
E13 [8], 12.34567901 nM	–	0.806
E13 [8], 37.037 nM	–	0.901
E13 [8], 111.1111111 nM	–	0.78
E13 [8], 333.333 nM	–	0.516
E13 [8], 1000 nM	–	0.473
E13 [8], 3000 nM	–	0.374
E21 [7], 4.11523 nM	0.716	–
E21 [7], 12.34567901 nM	0.855	–
E21 [7], 37.037 nM	0.967	–
E21 [7], 111.1111111 nM	1.35	–
E21 [7], 333.333 nM	2.88	–
E21 [7], 1000 nM	5.75	–
E21 [7], 3000 nM	5.93	–
E21 [14], 4.11523 nM	–	0.896
E21 [14], 12.34567901 nM	–	0.855
E21 [14], 37.037 nM	–	0.885
E21 [14], 111.1111111 nM	–	0.812
E21 [14], 333.333 nM	–	0.588
E21 [14], 1000 nM	–	0.47
E21 [14], 3000 nM	–	0.298
E28 [5], 4.11523 nM	0.783	–
E28 [5], 12.34567901 nM	1.11	–
E28 [5], 37.037 nM	1.44	–
E28 [5], 111.1111111 nM	1.78	–
E28 [5], 333.333 nM	2.64	–
E28 [5], 1000 nM	2.9	–
E28 [5], 3000 nM	2.64	–
E28 [12], 4.11523 nM	–	0.881
E28 [12], 12.34567901 nM	–	0.762
E28 [12], 37.037 nM	–	0.621
E28 [12], 111.1111111 nM	–	0.419
E28 [12], 333.333 nM	–	0.436
E28 [12], 1000 nM	–	0.266
E28 [12], 3000 nM	–	0.364
E31 [3], 4.11523 nM	0.939	–
E31 [3], 12.34567901 nM	0.828	–
E31 [3], 37.037 nM	1.58	–
E31 [3], 111.1111111 nM	3.2	–
E31 [3], 333.333 nM	4.03	–
E31 [3], 1000 nM	2	–
E31 [3], 3000 nM	2.86	–
E31 [10], 4.11523 nM	–	0.746
E31 [10], 12.34567901 nM	–	0.823
E31 [10], 37.037 nM	–	0.554
E31 [10], 111.1111111 nM	–	0.493
E31 [10], 333.333 nM	–	0.307
E31 [10], 1000 nM	–	0.283
E31 [10], 3000 nM	–	0.231
E34 [2], 4.11523 nM	0.877	–
E34 [2], 12.34567901 nM	0.742	–
E34 [2], 37.037 nM	0.789	–
E34 [2], 111.1111111 nM	1.03	–
E34 [2], 333.333 nM	2.75	–
E34 [2], 1000 nM	3.46	–
E34 [2], 3000 nM	4.17	–
E34 [9], 4.11523 nM	–	0.83
E34 [9], 12.34567901 nM	–	0.966
E34 [9], 37.037 nM	–	0.848
E34 [9], 111.1111111 nM	–	0.873
E34 [9], 333.333 nM	–	0.668
E34 [9], 1000 nM	–	0.534
E34 [9], 3000 nM	–	0.557
E57 [6], 4.11523 nM	0.758	–
E57 [6], 12.34567901 nM	0.794	–
E57 [6], 37.037 nM	0.549	–
E57 [6], 111.1111111 nM	1.24	–
E57 [6], 333.333 nM	4.25	–
E57 [6], 1000 nM	6.83	–
E57 [6], 3000 nM	7.52	–
E57 [13], 4.11523 nM	–	0.919
E57 [13], 12.34567901 nM	–	1.01
E57 [13], 37.037 nM	–	0.959
E57 [13], 111.1111111 nM	–	0.851
E57 [13], 333.333 nM	–	0.435
E57 [13], 1000 nM	–	0.295
E57 [13], 3000 nM	–	0.182
FT3469 [4], 4.11523 nM	0.576	–
FT3469 [4], 12.34567901 nM	0.799	–
FT3469 [4], 37.037 nM	3.73	–
FT3469 [4], 111.1111111 nM	1.07	–
FT3469 [4], 333.333 nM	1.54	–
FT3469 [4], 1000 nM	2.2	–
FT3469 [4], 3000 nM	1.92	–
FT3469 [11], 4.11523 nM	–	0.827
FT3469 [11], 12.34567901 nM	–	0.774
FT3469 [11], 37.037 nM	–	0.902
FT3469 [11], 111.1111111 nM	–	0.731
FT3469 [11], 333.333 nM	–	0.662
FT3469 [11], 1000 nM	–	0.582
FT3469 [11], 3000 nM	–	0.566
